Experimental data as given in PMC9227536, “Prediction of Pharmacokinetics of IDP-73152 in Humans Using Physiologically-Based Pharmacokinetics” (Pharmaceutics, 2022).

Key:
[1] = Metabolic stability in liver microsomes, rat; assay type: in vitro ADME
Procedure: In this study, the metabolic stability of IDP-73152 in microsomes from mice, rats, dogs, and humans, as well as rat hepatocytes, was determined. For a microsomal incubation study, the incubation mixtures, containing mouse, rat, dog, or human liver microsomes at a protein concentration of 0.5 mg/mL, 3.3 mM MgCl2, and 1.3 mM NADPH, in a 100 mM potassium phosphate buffer (pH 7.4), were preincubated for 3 min at 37 °C. In parallel, a control incubation mixture (i.e., identical composition to that of the incubation mixture without NADPH) was also prepared for comparison. The reaction was initiated by the addition of a 10 × solution of IDP-73152 (final concentration in mixtures of 1 μM) to the incubation mixtures or the control incubation mixtures. The mixtures were incubated in a shaking water bath (37 °C, 90 rpm). Aliquots (30 μL) were collected at 0, 15, 30, and 45 min from the mixture and the reaction was terminated by the addition of a 4-fold volume of ice-cold acetonitrile to the sample. The mixture was then vortexed for 5 min and centrifuged for 10 min at 10,000× g. The supernatant was collected and stored at -80 °C until the analysis. For the hepatocyte incubation study, rat hepatocytes were freshly prepared using the two-step collagenase perfusion method with slight modifications. After the isolation, cell viability during the preparation process was first determined by a trypan blue exclusion assay prior to the stability study. The preparation was considered adequate for subsequent studies if the viability was greater than 80%. When appropriate, the hepatocytes were resuspended in Williams' media E containing 10% fetal bovine serum, 1% penicillin-streptomycin, and 0.01% insulin-transferrin-selenium (i.e., 10 mg/mL insulin, 5.5 mg/mL transferrin, and 5 mg/mL selenium) at pH 7.4. The reaction was carried out with the hepatocyte suspension prepared at 1 × 10^6 cells/mL (0.5 mL) and initiated by the addition of equal volume of IDP-73152 solution (i.e., final concentration of the compound at 1 μM in 0.5 × 10^6 cells/mL of hepatocytes) to the hepatocyte suspension. […] Assuming first-order disappearance kinetics, the slope k of the logarithmically transformed IDP-73152 concentration in the sample versus time plot was determined by the linear regression analysis of the data. The total intrinsic clearance (CLint,mic, μL/min/mg protein for microsomal incubation study and CLint,hep, μL/min/million cells for hepatocytes incubation study) was then calculated using the following equations:(4) CLint, mic=k×Volume of incubation medium (μL)/Protein in incubation medium (mg) (5) CLint,hep=k×Volume of incubation (μL)/Number of cells in incubation (×10^6) The unbound intrinsic clearance, with respect to the whole liver ([…]), was then estimated for the two cases. […]

hepatic CYP3A = assay: Preliminary studies of metabolic pathway; assay type: in vitro ADME

CC(C)(C)[C@H](NC(=O)[C@H](CC1CCCC1)CN(O)C=O)C(=O)N1CCC(NCc2cc(F)c(F)cc2F)CC1 [IDP-73152]
CLhep predicted at 1 μM ([1]; rat, liver microsomes, pH 7.4, rats, read-out: CLh calculated from the CLint,mic (converted)): 28.2 mL/min/kg | microsomal CLint at 1 μM ([1]; rat, pH 7.4, rats liver microsomes 0.5 mg/mL, 1 μM, read-out: CLint,mic): 72 ± 2.6 µL/min/mg | hepatic ER (extraction ratio) ([1]; rats, from microsomal clearance, well-stirred model): 0.222 ± 0.006 | CLu,int,H ([1]; rats, scaled up to the whole liver from microsomes): 7.46 ± 0.27 L/h | primary metabolic pathway (hepatic CYP3A): mediated by hepatic CYP3A
